Legend:
ABUTH [1] = assay: Pre-emergence herbicidal action against ABUTH; format: in vivo, Abutilon theophrasti; conditions: Abutilon theophrasti, 504 h; for pest or weed control at 80 g/ha: scored visually after 3 weeks vs untreated controls (100% = plants have died, 0% = like control plants)
Summary of the method: (§1)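 Herbicidal effect was assessed 3 weeks after treatment by visual comparison with untreated controls, 100% denoting dead plants. Aqueous WP or EC preparations had been applied at 600 to 800 l/ha with 0.2% wetting agent to the soil covering freshly sown seeds.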

ALOMY [2] = assay: Pre-emergence herbicidal action against ALOMY; format: in vivo, Alopecurus myosuroides; conditions: Alopecurus myosuroides, 504 h; 80 g/ha, pre-emergence, scored visually after 3 weeks vs untreated controls (100% = plants have died, 0% = like control plants)
Summary of the method: as §1

AMARE [3] = assay: Pre-emergence herbicidal action against AMARE; format: in vivo, Amaranthus retroflexus; conditions: Amaranthus retroflexus, 504 h, scored visually after 3 weeks vs untreated controls, 100% = plants have died, 0% = like control plants
Summary of the method: as §1

AVEFA = assay: Pre-emergence herbicidal action against AVEFA; format: in vivo, Avena fatua; conditions: Avena fatua, 504 h, pre-emergence
Summary of the method: as §1

ECHCG [4] = assay: Pre-emergence herbicidal action against ECHCG; format: in vivo, Echinochloa crus-galli; conditions: Echinochloa crus-galli, 504 h
Summary of the method: as §1

LOLRI = assay: Pre-emergence herbicidal action against LOLRI; format: in vivo, Lolium rigidum; conditions: Lolium rigidum, 504 h, 80 g/ha
Summary of the method: as §1

MATIN [5] = assay: Pre-emergence herbicidal action against MATIN; format: in vivo, Matricaria inodora; conditions: Tripleurospermum inodorum, 504 h; for pest or weed control at 20 g/ha: dosage 20 g/ha; for pest or weed control at 80 g/ha: dosage 80 g/ha
Summary of the method: as §1

PHBPU [6] = assay: Pre-emergence herbicidal action against PHBPU; format: in vivo, Pharbitis purpurea; conditions: Ipomoea purpurea, 504 h; for pest or weed control at 80 g/ha: dosage 80 g/ha
Summary of the method: as §1

POLCO = assay: Pre-emergence herbicidal action against POLCO; format: in vivo, Polygonum convolvulus; conditions: Fallopia convolvulus, 504 h, dosage 80 g/ha
Summary of the method: as §1

SETVI [7] = assay: Pre-emergence herbicidal action against SETVI; format: in vivo, Setaria viridis; conditions: Setaria viridis, 504 h; for pest or weed control at 20 g/ha: dosage 20 g/ha; for pest or weed control at 80 g/ha: dosage 80 g/ha
Summary of the method: as §1

VERPE = assay: Pre-emergence herbicidal action against VERPE; format: in vivo, Veronica persica; conditions: Veronica persica, 504 h, dosage 80 g/ha
Summary of the method: as §1

VIOTR [8] = assay: Pre-emergence herbicidal action against VIOTR; format: in vivo, Viola tricolor; conditions: Viola tricolor, 504 h; for pest or weed control at 20 g/ha: dosage 20 g/ha; for pest or weed control at 80 g/ha: dosage 80 g/ha
Summary of the method: as §1

DIGSA [9] = assay: Pre-emergence herbicidal action against DIGSA; format: in vivo, Digitaria sanguinalis; conditions: Digitaria sanguinalis, 504 h; for pest or weed control at 20 g/ha: dosage 20 g/ha; for pest or weed control at 80 g/ha: dosage 80 g/ha
Summary of the method: as §1

ABUTH [10] = assay: Post-emergence herbicidal action against ABUTH; format: in vivo, Abutilon theophrasti; conditions: Abutilon theophrasti, 504 h, visual assessment about 3 weeks after treatment vs untreated controls; for pest or weed control at 20 g/ha: dosage 20 g/ha
Summary of the method: (§2)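 Herbicidal effect was scored visually in percent after about 3 weeks in the greenhouse. Plants had been raised in sandy loam and treated post-emergence at the one-leaf stage with formulated compound at 600 to 800 l/ha water plus 0.2% wetting agent.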

ALOMY [11] = assay: Post-emergence herbicidal action against ALOMY; format: in vivo, Alopecurus myosuroides; conditions: Alopecurus myosuroides, 504 h, dosage 20 g/ha, visual assessment about 3 weeks after treatment vs untreated controls
Summary of the method: as §2

AMARE [12] = assay: Post-emergence herbicidal action against AMARE; format: in vivo, Amaranthus retroflexus; conditions: Amaranthus retroflexus, 504 h, 20 g/ha, visual assessment about 3 weeks after treatment, 100% = plants have died, 0% = like control plants
Summary of the method: as §2

ECHCG [13] = assay: Post-emergence herbicidal action against ECHCG; format: in vivo, Echinochloa crus-galli; conditions: Echinochloa crus-galli, 504 h; for pest or weed control at 20 g/ha: dosage 20 g/ha
Summary of the method: as §2

MATIN [14] = assay: Post-emergence herbicidal action against MATIN; format: in vivo, Matricaria inodora; conditions: Tripleurospermum inodorum, 504 h; for pest or weed control at 20 g/ha: dosage 20 g/ha
Summary of the method: as §2

PHBPU [15] = assay: Post-emergence herbicidal action against PHBPU; format: in vivo, Pharbitis purpurea; conditions: Ipomoea purpurea, 504 h, dosage 20 g/ha
Summary of the method: as §2

SETVI [16] = assay: Post-emergence herbicidal action against SETVI; format: in vivo, Setaria viridis; conditions: Setaria viridis, 504 h; for pest or weed control at 5 g/ha: dosage 5 g/ha; for pest or weed control at 20 g/ha: dosage 20 g/ha
Summary of the method: as §2

VIOTR [17] = assay: Post-emergence herbicidal action against VIOTR; format: in vivo, Viola tricolor; conditions: Viola tricolor, 504 h
Summary of the method: as §2

DIGSA [18] = assay: Post-emergence herbicidal action against DIGSA; format: in vivo, Digitaria sanguinalis; conditions: Digitaria sanguinalis, 504 h
Summary of the method: as §2

Row | Compound | pest or weed control at 80 g/ha (ABUTH [1]) | pest or weed control at 80 g/ha (ALOMY [2]) | pest or weed control at 20 g/ha (AMARE [3]) | pest or weed control at 80 g/ha (AMARE [3]) | pest or weed control at 80 g/ha (AVEFA) | pest or weed control at 80 g/ha (ECHCG [4]) | pest or weed control at 80 g/ha (LOLRI) | pest or weed control at 20 g/ha (MATIN [5]) | pest or weed control at 80 g/ha (MATIN [5]) | pest or weed control at 80 g/ha (PHBPU [6]) | pest or weed control at 80 g/ha (POLCO) | pest or weed control at 20 g/ha (SETVI [7]) | pest or weed control at 80 g/ha (SETVI [7]) | pest or weed control at 80 g/ha (VERPE) | pest or weed control at 20 g/ha (VIOTR [8]) | pest or weed control at 80 g/ha (VIOTR [8]) | pest or weed control at 20 g/ha (DIGSA [9]) | pest or weed control at 80 g/ha (DIGSA [9]) | pest or weed control at 20 g/ha (ABUTH [10]) | pest or weed control at 20 g/ha (ALOMY [11]) | further results
1 | Cn1nnnc1NC(=O)c1ccc(C(F)(F)F)c(C(=O)NC2CC2)c1C1CC1 [Example 1-288] | 100% | 90% | 100% | 100% | 90% | 100% | 80% | 100% | 100% | 100% | 80% | 100% | 100% | 100% | 100% | 100% | 100% | 100% | 80% | 90% | pest or weed control at 20 g/ha (ABUTH [1]; dosage 20 g/ha, scored visually after 3 weeks vs untreated controls, 100% = plants have died, 0% = like control plants, read-out: Pre-emergence action against ABUTH (herbicidal activity in percent)): 100%; pest or weed control at 20 g/ha (ECHCG [4]; 20 g/ha): 80%; pest or weed control at 5 g/ha (ABUTH [10]; dosage 5 g/ha): 80%; pest or weed control at 20 g/ha (AMARE [12]): 100%; pest or weed control at 5 g/ha (ECHCG [13]; dosage 5 g/ha): 80%; pest or weed control at 20 g/ha (ECHCG [13]): 80%; pest or weed control at 5 g/ha (MATIN [14]; dosage 5 g/ha): 90%; pest or weed control at 20 g/ha (MATIN [14]): 100%; pest or weed control at 20 g/ha (PHBPU [15]): 80%; pest or weed control at 5 g/ha (SETVI [16]): 80%; pest or weed control at 20 g/ha (SETVI [16]): 100%; pest or weed control at 5 g/ha (VIOTR [17]): 90%; pest or weed control at 20 g/ha (VIOTR [17]): 90%; pest or weed control at 5 g/ha (DIGSA [18]; 5 g/ha): 90%; pest or weed control at 20 g/ha (DIGSA [18]): 100%
2 | CCn1nnnc1NC(=O)c1ccc(I)c(C(=O)NC2CC2)c1Cl [Example 2-197] | 100% | 90% | 100% | 100% | 100% | 100% | 90% | 80% | 100% | 90% | 100% | 90% | 100% | 90% | 100% | 100% | 100% | 100% | 80% | 90% | pest or weed control at 20 g/ha (AVEFA; 20 g/ha, scored visually after 3 weeks, 100% = plants have died, 0% = like control plants): 80%; pest or weed control at 20 g/ha (PHBPU [6]; dosage 20 g/ha): 80%; pest or weed control at 20 g/ha (AMARE [12]): 90%; pest or weed control at 20 g/ha (ECHCG [13]): 90%; pest or weed control at 20 g/ha (MATIN [14]): 80%; pest or weed control at 5 g/ha (SETVI [16]): 80%; pest or weed control at 20 g/ha (SETVI [16]): 100%; pest or weed control at 5 g/ha (VIOTR [17]): 80%; pest or weed control at 20 g/ha (VIOTR [17]): 100%; pest or weed control at 20 g/ha (DIGSA [18]): 90%

Reference: US12655116B2, “Substituted isophthalic acid diamides” (Bayer Aktiengesellschaft, priority 2020, dated 2026)
